In patent publication US12187723B2 (BRISTOL-MYERS SQUIBB COMPANY, priority 2019, dated 2025):

Each compound was assayed against T1, human TLR7 (Homo sapiens, UniProt Q9NYK1) (assay: TLR7 inhibition reporter assay (HEK-Blue SEAP)). Details: HEK-Blue cells overexpressing human TLR7, gardiquimod 7.5 μM, 22 hour incubation.
T1 construct: host or cells: HEK-Blue cells
T1 sequence (Q9NYK1 27-1049): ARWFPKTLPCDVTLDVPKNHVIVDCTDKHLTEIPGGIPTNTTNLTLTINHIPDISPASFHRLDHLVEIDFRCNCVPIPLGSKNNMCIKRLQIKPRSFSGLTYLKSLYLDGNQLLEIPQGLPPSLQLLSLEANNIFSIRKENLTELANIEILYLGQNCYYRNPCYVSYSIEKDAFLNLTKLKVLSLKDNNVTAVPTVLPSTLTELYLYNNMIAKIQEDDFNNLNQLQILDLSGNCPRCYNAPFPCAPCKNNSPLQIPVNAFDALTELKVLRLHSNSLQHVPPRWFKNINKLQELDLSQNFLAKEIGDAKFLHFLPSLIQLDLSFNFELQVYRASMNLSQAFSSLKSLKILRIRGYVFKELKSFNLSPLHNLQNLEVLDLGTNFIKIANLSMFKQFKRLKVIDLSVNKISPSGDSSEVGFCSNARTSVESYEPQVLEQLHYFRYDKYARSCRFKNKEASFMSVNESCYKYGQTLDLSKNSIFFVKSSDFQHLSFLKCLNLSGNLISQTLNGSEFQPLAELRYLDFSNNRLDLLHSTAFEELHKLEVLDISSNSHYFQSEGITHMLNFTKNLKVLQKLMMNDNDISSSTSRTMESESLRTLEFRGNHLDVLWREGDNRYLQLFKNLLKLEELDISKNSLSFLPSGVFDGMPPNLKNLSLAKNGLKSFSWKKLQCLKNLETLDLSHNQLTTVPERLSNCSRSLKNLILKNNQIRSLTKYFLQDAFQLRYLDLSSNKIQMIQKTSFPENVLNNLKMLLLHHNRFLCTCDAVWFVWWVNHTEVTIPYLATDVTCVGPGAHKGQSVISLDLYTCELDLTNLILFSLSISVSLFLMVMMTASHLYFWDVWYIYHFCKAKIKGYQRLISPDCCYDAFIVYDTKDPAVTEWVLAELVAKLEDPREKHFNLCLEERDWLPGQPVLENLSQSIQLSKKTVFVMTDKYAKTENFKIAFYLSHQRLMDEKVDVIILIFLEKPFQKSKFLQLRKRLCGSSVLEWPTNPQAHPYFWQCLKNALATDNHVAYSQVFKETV
Assay type: cell-based
How it was run: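 Cells (15000/well for TLR7, 20,000 for TLR8) were treated with compounds over 0.05 nM-50 μM final. After 22 h at 37° C, 5% CO2, SEAP was measured with HEK-Blue Detection reagent; percent inhibition was taken as reduction of agonist-plus-DMSO signal relative to a known inhibitor.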

**Q.** For COc1ncc(CN2CCC[C@H](n3c(=O)[nH]c4cc(-c5cc(C)c6ncnn6c5)c(C)cc43)C2)cn1 [Example 36, (S)-1-(1-((2-methoxypyrimidin-5-yl)methyl)piperidin-3-yl)-6-methyl-5-(8-methyl-[1,2,4]triazolo[1,5-a]pyridin-6-yl)-1,3-dihydro-2H-benzo[d]imidazol-2-one], which IC50 is on record?
**A.** 171 nM

**Q.** Which IC50 does the source give for COc1cc(-c2cc3[nH]c(=O)n([C@H]4CC[C@@H](NC5CCCC5)CC4)c3cc2C)cn2ncnc12 [Example 65, 1-((1s,4s)-4-(cyclopentylamino)cyclohexyl)-5-(8-methoxy-[1,2,4]triazolo[1,5-a]pyridin-6-yl)-6-methyl-1,3-dihydro-2H-benzo[d]imidazol-2-one] here?
**A.** 10.5 nM

**Q.** Which IC50 does the source give for Cc1cc2c(cc1-c1cc(C)c3ncnn3c1)[nH]c(=O)n2[C@H]1CC[C@@H](NCC(C)(C)C)CC1 [Example 32, 6-methyl-5-(8-methyl-[1,2,4]triazolo[1,5-a]pyridin-6-yl)-1-((1s,4s)-4-(neopentylamino)cyclohexyl)-1,3-dihydro-2H-benzo[d]imidazol-2-one] here?
**A.** 20.4 nM

**Q.** How did the IC50 turn out when COc1cc(-c2cc3[nH]c(=O)n([C@@H]4CCCN(CCC(F)(F)F)C4)c3cc2C)cn2ncnc12 [Example 68, (R)-5-(8-methoxy-[1,2,4]triazolo[1,5-a]pyridin-6-yl)-6-methyl-1-(1-(3,3,3-trifluoropropyl)piperidin-3-yl)-1,3-dihydro-2H-benzo[d]imidazol-2-one] was run?
**A.** 414 nM

**Q.** With COc1cc(-c2cc3[nH]c(=O)n([C@H]4CC[C@@H](NCC5CCCCC5)CC4)c3cc2C)cn2ncnc12 [Example 66, 1-((1s,4s)-4-((cyclohexylmethyl)amino)cyclohexyl)-5-(8-methoxy-[1,2,4]triazolo[1,5-a]pyridin-6-yl)-6-methyl-1,3-dihydro-2H-benzo[d]imidazol-2-one] as the compound, how does the IC50 read?
**A.** 20.8 nM

**Q.** For Cc1cc(-c2ccc3c(c2)[nH]c(=O)n3C2CCN(CC(=O)N(C)C)CC2)cn2ncnc12 [Example 90, N,N-dimethyl-2-(4-(5-(8-methyl-[1,2,4]triazolo[1,5-a]pyridin-6-yl)-2-oxo-2,3-dihydro-1H-benzo[d]imidazol-1-yl)piperidin-1-yl)acetamide], which IC50 is on record?
**A.** 2160 nM

**Q.** With COc1cc(-c2cc3[nH]c(=O)n([C@H]4CC[C@@H](NC5CCCCC5)CC4)c3cc2C)cn2ncnc12 [Example 62, 1-((1s,4s)-4-(cyclohexylamino)cyclohexyl)-5-(8-methoxy-[1,2,4]triazolo[1,5-a]pyridin-6-yl)-6-methyl-1,3-dihydro-2H-benzo[d]imidazol-2-one] as the compound, how does the IC50 read?
**A.** 12 nM

**Q.** With COc1cc(-c2cc3[nH]c(=O)n([C@@H]4CCCN(CC5CCOCC5)C4)c3cc2C)cn2ncnc12 [Example 57, (R)-5-(8-methoxy-[1,2,4]triazolo[1,5-a]pyridin-6-yl)-6-methyl-1-(1-((tetrahydro-2H-pyran-4-yl)methyl)piperidin-3-yl)-1,3-dihydro-2H-benzo[d]imidazol-2-one] as the compound, how does the IC50 read?
**A.** 8.11 nM

**Q.** For Cc1cc2c(cc1-c1cc(C)c3ncnn3c1)[nH]c(=O)n2[C@@H]1CCCN(CC2CCCC2)C1 [Example 47, (R)-1-(1-(cyclopentylmethyl)piperidin-3-yl)-6-methyl-5-(8-methyl-[1,2,4]triazolo[1,5-a]pyridin-6-yl)-1,3-dihydro-2H-benzo[d]imidazol-2-one], which IC50 is on record?
**A.** 18.5 nM

**Q.** With CCCN1CCC[C@@H](n2c(=O)[nH]c3cc(-c4cc(OC)c5ncnn5c4)c(C)cc32)C1 [Example 54, (R)-5-(8-methoxy-[1,2,4]triazolo[1,5-a]pyridin-6-yl)-6-methyl-1-(1-propylpiperidin-3-yl)-1,3-dihydro-2H-benzo[d]imidazol-2-one] as the compound, how does the IC50 read?
**A.** 29.2 nM

**Q.** Which IC50 does the source give for CCC(CC)CN1CCC(n2c(=O)[nH]c3cc(-c4cc(OC)c5ncnn5c4)ccc32)CC1 [Example 75, 1-(1-(2-ethylbutyl)piperidin-4-yl)-5-(8-methoxy-[1,2,4]triazolo[1,5-a]pyridin-6-yl)-1,3-dihydro-2H-benzo[d]imidazol-2-one] here?
**A.** 1360 nM

**Q.** How did the IC50 turn out when Cc1cc2c(cc1-c1cc(C)c3ncnn3c1)[nH]c(=O)n2[C@H]1CCCN(CC(N)=O)C1 [Example 92, (S)-2-(3-(6-methyl-5-(8-methyl-[1,2,4]triazolo[1,5-a]pyridin-6-yl)-2-oxo-2,3-dihydro-1H-benzo[d]imidazol-1-yl)piperidin-1-yl)acetamide] was run?
**A.** 820 nM

**Q.** For COc1cc(-c2cc3[nH]c(=O)n([C@@H]4CCCN(C5CCOCC5)C4)c3cc2C)cn2ncnc12 [Example 70, (R)-5-(8-methoxy-[1,2,4]triazolo[1,5-a]pyridin-6-yl)-6-methyl-1-(1-(tetrahydro-2H-pyran-4-yl)piperidin-3-yl)-1,3-dihydro-2H-benzo[d]imidazol-2-one], which IC50 is on record?
**A.** 163 nM

**Q.** Which IC50 does the source give for COc1cc(-c2ccc3c(c2)[nH]c(=O)n3C2CCN(C3CCOC3)CC2)cn2ncnc12 (stereo not drawn) [Example 81, 5-(8-methoxy-[1,2,4]triazolo[1,5-a]pyridin-6-yl)-1-(1-(tetrahydrofuran-3-yl)piperidin-4-yl)-1,3-dihydro-2H-benzo[d]imidazol-2-one] here?
**A.** 2640 nM

**Q.** Which IC50 does the source give for Cc1cc2c(cc1-c1cc(C)c3ncnn3c1)[nH]c(=O)n2[C@@H]1CCCN(Cc2ncn(C)n2)C1 [Example 35, (R)-6-methyl-1-(1-((1-methyl-1H-1,2,4-triazol-3-yl)methyl)piperidin-3-yl)-5-(8-methyl-[1,2,4]triazolo[1,5-a]pyridin-6-yl)-1,3-dihydro-2H-benzo[d]imidazol-2-one] here?
**A.** 722 nM

**Q.** COc1cc(-c2cc3[nH]c(=O)n([C@@H]4CCCN(CC(C)C)C4)c3cc2C)cn2ncnc12 [Example 56, (R)-1-(1-isobutylpiperidin-3-yl)-5-(8-methoxy-[1,2,4]triazolo[1,5-a]pyridin-6-yl)-6-methyl-1,3-dihydro-2H-benzo[d]imidazol-2-one] was tested. Which IC50 did it give?
**A.** 5.32 nM

**Q.** CCCN1CCC[C@@H](n2c(=O)[nH]c3cc(-c4cc(C)c5ncnn5c4)c(C)cc32)C1 [Example 42, (R)-6-methyl-5-(8-methyl-[1,2,4]triazolo[1,5-a]pyridin-6-yl)-1-(1-propylpiperidin-3-yl)-1,3-dihydro-2H-benzo[d]imidazol-2-one] was tested. Which IC50 did it give?
**A.** 26.3 nM

**Q.** For Cc1cc2c(cc1-c1cc(C)c3ncnn3c1)[nH]c(=O)n2[C@@H]1CCCN(Cc2cccnc2)C1 [Example 46, (R)-6-methyl-5-(8-methyl-[1,2,4]triazolo[1,5-a]pyridin-6-yl)-1-(1-(pyridin-3-ylmethyl)piperidin-3-yl)-1,3-dihydro-2H-benzo[d]imidazol-2-one], which IC50 is on record?
**A.** 172 nM

**Q.** With COc1cc(-c2cc3[nH]c(=O)n([C@H]4CC[C@@H](N(C)C5CCOCC5)CC4)c3cc2C)cn2ncnc12 [Example 85, 5-(8-methoxy-[1,2,4]triazolo[1,5-a]pyridin-6-yl)-6-methyl-1-((1s,4s)-4-(methyl(tetrahydro-2H-pyran-4-yl)amino)cyclohexyl)-1,3-dihydro-2H-benzo[d]imidazol-2-one] as the compound, how does the IC50 read?
**A.** 21.4 nM

**Q.** Which IC50 does the source give for CCC(CC)N1CCC[C@@H](n2c(=O)[nH]c3cc(-c4cc(OC)c5ncnn5c4)c(C)cc32)C1 [Example 67, (R)-5-(8-methoxy-[1,2,4]triazolo[1,5-a]pyridin-6-yl)-6-methyl-1-(1-(pentan-3-yl)piperidin-3-yl)-1,3-dihydro-2H-benzo[d]imidazol-2-one] here?
**A.** 33 nM

**Q.** With COc1cc(-c2cc3[nH]c(=O)n([C@H]4CC[C@@H](NC5CCOCC5)CC4)c3cc2C)cn2ncnc12 [Example 49, 5-(8-methoxy-[1,2,4]triazolo[1,5-a]pyridin-6-yl)-6-methyl-1-((1s,4s)-4-((tetrahydro-2H-pyran-4-yl)amino)cyclohexyl)-1,3-dihydro-2H-benzo[d]imidazol-2-one] as the compound, how does the IC50 read?
**A.** 18.2 nM
